Key:
Assay in all cases: relative viability (nuclei count vs DMSO), 5 days (fraction); higher = more cells survive
R406 + Palbociclib = compound: COc1cc(Nc2ncc(F)c(Nc3ccc4c(n3)NC(=O)C(C)(C)O4)n2)cc(OC)c1OC [R406] + CC(=O)c1c(C)c2cnc(Nc3ccc(N4CCNCC4)cn3)nc2n(C2CCCC2)c1=O [Palbociclib] (partner 0.5 µM)
In short: (§1)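 Lung cancer cell lines, seeded in 1536-well plates, were treated the following day by pin tool with a single drug or with five library-drug doses (not always all listed) in √10 steps on top of a fixed anchor-drug dose. Cells were fixed and nuclei stained in one step after 5 days, and nuclei were counted. Relative viability is the nuclei count for treated wells divided by that for vehicle wells, reported as medians of duplicate plates.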

R406 + Navitoclax = compound: COc1cc(Nc2ncc(F)c(Nc3ccc4c(n3)NC(=O)C(C)(C)O4)n2)cc(OC)c1OC [R406] + CC1(C)CCC(c2ccc(Cl)cc2)=C(CN2CCN(c3ccc(C(=O)NS(=O)(=O)c4ccc(N[C@H](CCN5CCOCC5)CSc5ccccc5)c(S(=O)(=O)C(F)(F)F)c4)cc3)CC2)C1 [Navitoclax] (partner 0.5 µM)
In short: as §1

Daporinad + Crizotinib = compound: O=C(/C=C/c1cccnc1)NCCCCC1CCN(C(=O)c2ccccc2)CC1 [Daporinad] + C[C@@H](Oc1cc(-c2cnn(C3CCNCC3)c2)cnc1N)c1c(Cl)ccc(F)c1Cl [Crizotinib] (partner 1 µM)
In short: as §1

Daporinad + Linsitinib = compound: O=C(/C=C/c1cccnc1)NCCCCC1CCN(C(=O)c2ccccc2)CC1 [Daporinad] + C[C@]1(O)C[C@@H](c2nc(-c3ccc4ccc(-c5ccccc5)nc4c3)c3c(N)nccn32)C1 [Linsitinib] (partner 1 µM)
In short: as §1

Cell Line | relative viability (R406 + Palbociclib; first compound 0.08 µM) | relative viability (R406 + Palbociclib; first compound 0.253 µM) | relative viability (R406 + Palbociclib; first compound 0.8 µM) | relative viability (R406 + Palbociclib; first compound 2.53 µM) | relative viability (R406 + Palbociclib; first compound 8 µM) | relative viability (R406 + Navitoclax; first compound 0.08 µM) | relative viability (R406 + Navitoclax; first compound 0.253 µM) | relative viability (R406 + Navitoclax; first compound 0.8 µM) | relative viability (R406 + Navitoclax; first compound 2.53 µM) | relative viability (R406 + Navitoclax; first compound 8 µM) | relative viability (Daporinad + Crizotinib; first compound 0.0005 µM) | relative viability (Daporinad + Crizotinib; first compound 0.001581 µM) | relative viability (Daporinad + Crizotinib; first compound 0.005 µM) | relative viability (Daporinad + Crizotinib; first compound 0.01581 µM) | relative viability (Daporinad + Linsitinib; first compound 0.0005 µM) | relative viability (Daporinad + Linsitinib; first compound 0.001581 µM) | relative viability (Daporinad + Linsitinib; first compound 0.005 µM) | relative viability (Daporinad + Linsitinib; first compound 0.01581 µM)
HCC-827 | 0.508 | 0.538 | 0.517 | 0.422 | 0.373 | 1.04 | 0.952 | 0.949 | 0.932 | 0.489 | 0.963 | 1.01 | 0.936 | 0.931 | 1 | 0.998 | 1.02 | 0.921
HOP-62 | 0.426 | 0.533 | 0.397 | 0.456 | 0.378 | 0.937 | 0.985 | 1.11 | 1.1 | 1.06 |  | 1.05 | 0.994 | 0.789 |  | 0.893 | 1.15 | 0.789
LC-2-ad | 0.414 | 0.571 | 0.501 | 0.408 | 0.277 | 0.514 | 0.479 | 0.453 | 0.18 | 0.101 | 0.501 | 0.513 | 0.491 | 0.46 | 0.688 | 0.972 | 0.877 | 0.83
LCLC-97TM1 | 0.34 | 0.218 | 0.273 | 0.185 | 0.217 | 0.375 | 0.511 | 0.519 | 0.254 | 0.462 | 0.443 | 0.402 | 0.605 | 0.323 | 0.204 | 0.235 | 0.193 | 0.17
LK-2 | 0.592 | 0.679 | 0.854 | 0.574 | 0.542 | 0.726 | 1.06 | 0.889 | 0.527 | 0.455 | 0.327 | 0.32 | 0.296 | 0.283 | 0.665 | 0.648 | 0.362 | 0.196
LOU-NH91 | 0.532 | 0.547 | 0.499 | 0.552 | 0.538 | 0.715 | 0.701 | 0.752 | 0.318 | 0.313 | 0.782 | 0.801 | 0.862 | 0.913 | 0.854 | 1.04 | 1.14 | 1.52
LU99A | 0.343 | 0.392 | 0.422 | 0.273 | 0.26 | 0.761 | 0.72 | 1.11 |  | 0.229 | 0.527 | 0.596 | 0.685 | 0.549 | 0.497 | 0.55 | 0.604 | 0.572
LXF-289 | 0.589 | 0.621 | 0.623 | 0.596 | 0.596 | 0.942 | 1.01 | 1 | 0.931 | 0.251 | 0.784 | 0.899 | 0.848 | 0.854 | 0.904 | 0.972 | 1 | 1.1
NCI-H23 | 0.496 | 0.539 | 0.629 | 0.454 | 0.155 | 0.712 | 0.884 | 1.07 | 0.733 | 0.518 | 0.744 | 0.667 | 0.678 | 0.398 | 0.699 | 0.518 | 0.537 | 0.279
NCI-H322M | 0.463 | 0.452 | 0.468 | 0.456 | 0.354 | 1.13 | 1.23 | 1.28 | 0.862 | 0.534 | 0.847 | 1.03 | 0.985 | 0.592 | 0.995 | 1.03 | 0.926 | 0.925
NCI-H441 | 0.214 | 0.191 | 0.204 | 0.137 | 0.118 |  | 0.584 | 0.818 |  | 0.446 | 0.79 | 0.916 | 1.1 | 1.15 | 0.533 | 0.473 | 0.605 | 0.56
NCI-H460 | 0.157 | 0.2 | 0.183 | 0.0283 | 0.0792 | 1.16 | 1.35 | 1.25 |  | 0.476 | 1.02 | 0.91 | 1.17 | 0.897 | 0.759 | 0.928 | 0.818 | 0.777
NCI-H520 | 0.173 | 0.209 | 0.244 | 0.164 | 0.108 | 1.02 | 1.09 | 1.05 | 0.636 | 0.251 | 0.789 | 0.726 | 0.258 | 0.114 | 0.87 | 0.445 | 0.177 | 0.149
NCI-H647 | 0.387 | 0.37 | 0.426 | 0.261 | 0.0695 | 1.04 | 1.29 | 1.18 | 0.562 | 0.467 | 1.27 | 0.974 | 1.43 | 1.11 | 1.06 | 1.07 | 1.24 | 0.983
NCI-H727 | 0.621 | 0.702 | 0.752 | 0.652 | 0.609 | 0.39 | 0.44 | 0.46 | 0.381 | 0.325 | 0.713 | 0.786 | 0.938 | 0.698 | 0.282 | 0.337 | 0.244 | 0.261
NCI-H838 | 0.227 | 0.236 | 0.247 | 0.179 | 0.107 | 1.14 | 1.23 | 1.34 | 0.802 | 0.305 | 0.886 | 0.92 | 0.959 | 0.675 | 1.17 | 1.14 | 0.832 | 0.558
NCI-H1355 | 0.404 | 0.366 | 0.416 | 0.329 | 0.278 | 1.05 | 0.94 | 1.08 | 0.542 | 0.648 | 1.08 | 1.1 | 1.22 | 1.1 | 0.798 | 1.02 | 0.9 | 0.876
NCI-H1437 | 0.318 | 0.349 | 0.363 | 0.391 | 0.229 | 1.1 | 1.16 | 1.1 | 0.997 | 0.725 | 0.795 | 0.956 | 1.02 | 0.855 | 0.969 | 0.986 | 0.976 | 0.965
